Test results as given in US11883436B2, “Method of preparing hematopoietic stem and progenitor cells for transplantation” (THE BOARD OF TRUSTEES OF THE UNIVERSITY OF ILLINOIS, priority 2020, dated 2024).

Assays:
HSPC = conditions: literature comparison; cited from earlier work
[1] = test system: GAD1/2f/f; CD79a/Mb1-Cre HSPCs (LSK); experiment: OP9 co-culture B cell differentiation of GAD1/2-deleted HSPCs with Baclofen in the media; format: cell-based, mouse; conditions: media supplemented with agonist, 12 days
Text: To genetically block GABA production during B cell differentiation, the B lineage Cre lines CD79a/Mb1-Cre (19) and CD19-Cre were used (Rickert, et al. (1997) Nucl. Acids Res. 25(6):1317-8). These lines were crossed to a GAD1/2-floxed allele (Meng, et al. (2016) Proc. Natl. Acad. Sci. USA 113(13):3645-50) that also carries the Ai14 Lox-Stop-Lox-tdTomato Cre reporter (Madisen, et al. (2010) Nat. Neurosci. 13(1):133-40). At 6-8 weeks of age, BM were harvested and HSPCs (LSK) were sorted from GAD1/2^f/f; CD79a/Mb1-Cre (Cd79a KO) and GAD1/2^f/f-CD19-Cre (Cd19 KO) mice, as well as littermate Cre-negative controls (wild-type). GAD1/2^ff/ excised by Cre recombination will delete the only enzymes that can produce GABA. HSPCs were plated, 3,000-4,000 per well, in OP9 co-culture and were differentiated for 12 days. Cells were harvested from co-cultures for analysis by flow cytometry. The Ai14 Cre reporter was used to confirm that >95% of CD19^+ and/or B220^+ cells were tdTomato^+ as an indication of robust Cre excision in B lineages. Removal of GAD1/2 with CD79a/Mb1-Cre, but not CD19-Cre, led to dramatic reduction of absolute numbers of CD45^+ hematopoietic and B220^+ B lineages. The percentage of B220^+ cells decreased with GAD1/2 deletion by CD79a/Mb1-Cre.

LSK progenitors = experiment: OP9 co-culture B cell differentiation of LSK progenitors treated with Baclofen; format: cell-based, mouse
Procedure: In vitro B Cell Differentiation Assay. LSK progenitors (4,000) from wild-type and Gabbr1^−/− mice were directly sorted onto pre-prepared OP9 stromal cells with 1 mL complete DMEM medium containing 10% FBS, 1 ng/mL IL-7, and 5 ng/mL Flt-3L. Three and six days later, 1 mL complete DMEM medium was added. One week after initial culture, all cells including OP9 cells were mechanically detached and filtered with a […] cell strainer. Cells were passaged onto fresh OP9 stromal cells with complete medium. Medium was changed every three days. At 14 days after initial culture, all cells were detached and stained with CD45.2, CD19, B220 and CD11b antibodies. The numbers of the different hematopoietic cell populations in each well were calculated by multiplying the total cell numbers from each well with the frequencies of each population. To assess the effects of Gabbr1 on myeloid cell differentiation from LSK cells, the DMEM medium containing 10% FBS, 1 ng/ml IL-7, 5 ng/ml Flt-3L, 5 ng/ml IL-6, 6 ng/ml IL-3 was used. Fourteen days after sorted LSK cells were cultured on OP9 cells, numbers of CD11b^+ and Gr-1^+ cells were measured via flow cytometry.
In addition, OP9 co-culture experiments were carried out to differentiate HSPCs in vitro toward B lineages. LSK progenitors (3,000-4,000 cells) were sorted from wild-type or Gabbr1 null mutants. These cells were plated on a stromal OP9 cells and induced to differentiate into B cells by supplementing media (a-MEM 25% HYCLONE™ FBS) with IL-7 (1 ng/mL) and Flt3L (5 ng/mL). […]
To test if OP9 co-cultures would respond to GABBR1 agonist during B cell differentiation, and allow downstream biochemical analysis, the co-cultures were treated with Baclofen. […] Cultures were harvested and analyzed for cell surface marker expression (B220^+ and GABBR1^+) by flow cytometry at day 12.
As part of this self-regulating direct feedback mechanism, it was also determined whether there were any changes in GABBR1 surface expression in B lineages using flow cytometry. […]

CD34+ UCB progenitors = experiment: Human umbilical cord blood (UCB) colony forming assays; format: cell-based
Procedure: Human Umbilical Cord Blood (UCB) Colony Forming Assays. Colony forming assays were carried out with either CD34^+ UCB progenitors treated as above prior to xenotransplant (i.e., input cells), or from xenotransplant recipient BM after 16 weeks (i.e., output cells). Input cells were plated at a density of 1×10^3 cells/dish. Output cells were plated at a density of 2×10^5 cells/dish. Cells were mixed with METHOCULT® M3434 culture medium (STEMCELL Technologies) and plated into each of three 35-mm gridded dishes. Dishes were incubated at 37° C. for 12 days and colonies were enumerated under a bright light microscope. A clonogenic colony contained at least 50 cells or greater. Findings from the mouse model indicated a role for Gabbr1 neuroreceptor in two aspects of hematopoiesis: proliferation of HSPCs and differentiation of B lineage cells. To evaluate functional conservation of Gabbr1 in hematopoiesis, and translational potentials of GABA signaling for HSPCs, CD34^+ UCB cells were exposed for 2 hours in vitro with increasing doses of either baclofen (Bac), a clinically approved GABA agonist (Bowery, et al. (1980) Nature 283(5742):92-94), or 2-hydroxy-saclofen (Sac), a selective antagonist of GABA B receptor (Kerr, et al. (1988) Neurosci. Lett. 92(1):92-96). […]

CD34+ UCB cells = experiment: CD34+ UCB cell xenotransplants into NSG mice after 2 hour ex vivo treatment; engraftment at 16 weeks; format: in vivo, human
Procedure: CD34^+ UCB Cell Xenotransplants into NSG Mice. All NSG studies were carried out in accordance with, and approval of the Institutional Animal Care and Use Committee of Indiana University School of Medicine and the Guide for the Care and Use of Laboratory animals. Female NOD.Cg-Prkdc^scid I12rg^tm1Wj1/Szj (NSG) mice were obtained from the In Vivo Therapeutics Core of the Indiana University Simon Cancer Center. Animals were maintained under pathogen-free conditions and maintained on Irradiated Global 2018 (Uniprim 4,100 ppm; Harlan Laboratories) food pellets with ad libitum access to autoclaved, acidified tap water under a 12-hour light-dark cycle at 22° C. to 24° C. Mice were irradiated 4 hours prior to transplant (3.0 Gy of ^137Cesium γ-ray irradiation in an irradiator (J. L. Shepherd, Glendale, CA) at a dose rate of 88 cGy/min). CD34^+ UCB cells were thawed in 1% human serum albumin in STEMSPAN® media (STEMCELL Technologies) with human SCF 100 ng/ml and allowed to sit for 2 hours. Cells were then counted and plated at 0.5×10^6 cells/mL in STEMSPAN® media with 1% HSA. Cells were plated and treated with the following for 2 hours at 37° C.: 1, 10, or 50 μM (RS)-Baclofen (Tocris); 1, 10, or 50 μM 2-hydroxy-saclofen (Tocris); vehicle control (DMSO). Cells were harvested and immediately washed with PBS by centrifugation at 300×g for 10 minutes. Mice were transplanted with 20,000 cells each in 200 μL PBS (n=7 mice per group). PB and BM were harvested at 16 weeks post-transplant.
Analysis and Multi-Parametric Flow Cytometry Immunostaining of Xenotransplant Mice. For peripheral blood counts, blood was obtained through retro-orbital bleeding and transferred to EDTA-coated tubes. Peripheral blood cell numbers were determined using a Vet Abc Hematological analyzer (Scil Animal Care). For PB, BM, and spleen analysis of the target populations in xenotransplant mice, the cells were collected using a red blood cell lysis assay (eBioscience). The following primary conjugated monoclonal antibodies were used: anti-human CD34 PE (BD Pharmingen), anti-human AC133 APC (Miltenyi Biotec), anti-human CD19 PECy7 (BD Pharmingen), anti-human CD33 PerCP-Cy5.5 (BD Pharmingen), anti-human CD38 FITC (BD Pharmingen), anti-human CD45 APC-fluorescent dye sold under the tradename ALEXA FLUOR® (AF) 750 (Invitrogen), and the fixable amine reactive viability dye, LiveDead (Violet, Invitrogen).
The lysed PB, BM, and spleen cells were incubated with both human and murine Fc blocking reagent (Miltenyi Biotec) for 10 minutes on ice. Briefly, cells were incubated with the titered antibodies listed above for 30 minutes at 4° C., washed twice in PBS with 2% fetal bovine serum, fixed in 1% PFA (Tousimis), and analyzed within 24 hours on a BD Fortessa™ flow cytometer (BD, Franklin Lakes, NJ, USA) equipped with a 405 nm violet laser, 488 nm blue laser, 640 nm red laser, and 561 nm yellow-green laser. Approximately 100,000 events per sample were acquired uncompensated and exported as FCS 3.1 files, and analyzed utilizing FlowJo software, version 9.9.6 (Tree Star, Inc). “Fluorescent minus one” (FMO) gating controls were also used to ensure proper gating of positive events (Estes, et al. (2010) Curr. Prot. Cytometry 9:9.33.331-11; Estes, et al. (2010) Cytometry Part A 77:831-839).
Findings from the mouse model indicated a role for Gabbr1 neuroreceptor in two aspects of hematopoiesis: proliferation of HSPCs and differentiation of B lineage cells. To evaluate functional conservation of Gabbr1 in hematopoiesis, and translational potentials of GABA signaling for HSPCs, CD34^+ UCB cells were exposed for 2 hours in vitro with increasing doses of either baclofen (Bac), a clinically approved GABA agonist (Bowery, et al. (1980) Nature 283(5742):92-94), or 2-hydroxy-saclofen (Sac), a selective antagonist of GABA B receptor (Kerr, et al. (1988) Neurosci. Lett. 92(1):92-96). […]

[2] = 10 μM vs vehicle control, spleen of transplanted NSG mice

CCCCC[C@H](O)/C=C/[C@H]1[C@H](O)CC(=O)[C@@H]1C/C=C\CCCC(=O)O [Prostaglandin E2]
improvement in long-term engraftment (HSPC): 2- to 4 fold

NCC(CC(=O)O)c1ccc(Cl)cc1 (racemic) [Baclofen, 4-amino-3-(4-chorophenyl)-butanoic acid]
rescue of B cell differentiation defect due to GAD1/2 deletion [1]: partially rescues the defect
B cell production (B220+ cell number) (LSK progenitors; 1 μM, day 12): reached significance in its stimulation of B cell production
B cell number across dose curve (LSK progenitors; 0.5, 1.0, 5.0, 10 μM, day 12): trend of B cell number increase, then decrease
percentage of B220+ cells with surface expression of GABBR1+ (LSK progenitors; 0.5, 1, 5, 10 μM, day 12, flow cytometry): decreased
in vitro CFUs of CD34+ UCB cells (CD34+ UCB progenitors; input cells, after 2-hour treatment): did not produce increased colonies
progenitor colonies (CFU) in BM of NSG mice transplanted with treated CD34+ UCB cells, vs controls (CD34+ UCB progenitors; output cells, 16 weeks post-transplantation): three-fold
progenitor engraftment CD38+, BM chimerism (CD34+ UCB cells; 10 μM vs vehicle control, BM, 16 weeks): significant increases
CD19+ B-cell reconstitution in spleen (CD34+ UCB cells; [2]): two-fold
overall engraftment in spleen (CD34+ UCB cells; [2]): significant increases in overall engraftment
progenitor-specific CD34+ BM engraftment in NSG mice (CD34+ UCB cells; 10 μM, 2 hours ex vivo, 16 weeks post-transplant): significant improvement
engraftment of hCD45+ cells in NSG recipients (BM) (CD34+ UCB cells; 10 μM, 2 hours ex vivo, 16 weeks post-transplant, vs vehicle control): dramatic enhancement over vehicle control
chimerism, fold higher (long-term engraftment) (CD34+ UCB cells; UCB CD34+ cells, 2 hour treatment, 10 μM dose, before transplantation): 2- to 8 fold
BM chimerism and progenitor numbers in xenograft mouse model (CD34+ UCB cells; human CD34+ UCB HSPCs, up to 16 weeks): sustained increases

NCC(O)(CS(=O)(=O)O)c1ccc(Cl)cc1 (stereo not drawn) [2-hydroxy-saclofen, 3-Amino-2-(4-chlorophenyl)-2-hydroxypropyl-sulfonic acid]
engraftment (CD45+, CD34+) in NSG mice (CD34+ UCB cells; 1, 10 or 50 μM, 2 hours ex vivo, 16 weeks post-transplant): did not significantly increase engraftment at any of the tested doses
